Measured values reported in the supplement of paper PMC7394473.

Columns and labels:
Conditions in all cases: 72 h
U2OS [1] = test: drug GRADE (percent of response due to cell death) (% (0-100)); higher = more death-driven response
Description: (§1)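 U2OS cells treated with full dose titrations of drug; live and dead cells counted by STACK microscopy (mKate2 nuclei, SYTOX Green) at 72 h, biological triplicates. GR and FV dose responses were fitted with 4-parameter logistic models (GR lower bound -1). GRADE (0-100) is the rescaled angle of a linear fit of FV versus GR at doses with GR >= 0, giving the percentage of the response due to cell death.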

U2OS [2] = test: fractional viability (live cells / total cells); higher = less cell death
Description: (§2)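 U2OS::Nuc-mKate2 cells seeded in 96-well plates and treated with eight- to ten-point half-log or log dilutions of drug in the presence of 50 nM SYTOX Green. Live (mKate2+) and dead (SYTOX+) cells were counted by IncuCyte STACK live-cell microscopy at 72 h; biological triplicates. GR is the normalised growth-rate inhibition value (Hafner 2016; 1 = untreated growth, <0 = population shrinking). FV is live/(live+dead) cells, not normalised.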

U2OS [3] = test: FV IC50 (concentration giving fractional viability 0.5); higher = less potent killing
Description: as §1

U2OS [4] = test: GRmin (fitted minimal GR value at highest effect) (GR value (dimensionless)); higher = less efficacious
Description: as §1

U2OS [5] = test: GR50 (concentration giving GR = 0.5)
Description: as §1

U2OS [6] = test: normalized growth rate inhibition value (GR) relative to untreated cells (GR value (dimensionless, 1 = untreated growth)); higher = less growth inhibition
Description: as §2

Structure (SMILES) | drug GRADE (U2OS [1]) | fractional viability (U2OS [2]; 0.00100578 µM) | fractional viability (U2OS [2]; 0.00317827 µM) | fractional viability (U2OS [2]; 0.0100433 µM) | fractional viability (U2OS [2]; 0.0317369 µM) | fractional viability (U2OS [2]; 0.100289 µM) | fractional viability (U2OS [2]; 0.316912 µM) | fractional viability (U2OS [2]; 1.00144 µM) | fractional viability (U2OS [2]; 3.16456 µM) | fractional viability (U2OS [2]; 10 µM) | FV IC50 (U2OS [3]) | GRmin (U2OS [4]) | GR50 (U2OS [5]) | normalized growth rate inhibition value (U2OS [6]; 0.00100578 µM) | normalized growth rate inhibition value (U2OS [6]; 0.00317827 µM) | normalized growth rate inhibition value (U2OS [6]; 0.0100433 µM) | normalized growth rate inhibition value (U2OS [6]; 0.0317369 µM) | normalized growth rate inhibition value (U2OS [6]; 0.100289 µM) | normalized growth rate inhibition value (U2OS [6]; 0.316912 µM) | normalized growth rate inhibition value (U2OS [6]; 1.00144 µM) | normalized growth rate inhibition value (U2OS [6]; 3.16456 µM) | normalized growth rate inhibition value (U2OS [6]; 10 µM) | fractional viability (U2OS [2]; 0.01 µM) | fractional viability (U2OS [2]; 0.0316 µM) | fractional viability (U2OS [2]; 0.1 µM) | fractional viability (U2OS [2]; 0.316 µM) | fractional viability (U2OS [2]; 1 µM) | fractional viability (U2OS [2]; 3.16 µM) | fractional viability (U2OS [2]; 31.6 µM) | normalized growth rate inhibition value (U2OS [6]; 0.01 µM) | normalized growth rate inhibition value (U2OS [6]; 0.0316 µM) | normalized growth rate inhibition value (U2OS [6]; 0.1 µM) | normalized growth rate inhibition value (U2OS [6]; 0.316 µM) | normalized growth rate inhibition value (U2OS [6]; 1 µM) | normalized growth rate inhibition value (U2OS [6]; 3.16 µM) | normalized growth rate inhibition value (U2OS [6]; 31.6 µM) | fractional viability (U2OS [2]; 0.001 µM) | fractional viability (U2OS [2]; 0.00316 µM) | normalized growth rate inhibition value (U2OS [6]; 0.001 µM) | normalized growth rate inhibition value (U2OS [6]; 0.00316 µM)
NC(=O)Nc1cc(-c2cccc(F)c2)sc1C(=O)N[C@H]1CCCNC1 [AZD7762] | 20 | 0.991 | 0.992 | 0.992 | 0.988 | 0.894 | 0.548 | 0.398 | 0.0972 | 0.0629 | 510 nM | -0.614 | 0.11 µM | 1.04 | 1.04 | 1.19 | 1.12 | 0.423 | -0.126 | -0.318 | -0.622 | -0.718 | – | – | – | – | – | – | – | – | – | – | – | – | – | – | – | – | – | –
CCN1CCN(Cc2ccc(Nc3ncc(F)c(-c4cc(F)c5nc(C)n(C(C)C)c5c4)n3)nc2)CC1 [Abemaciclib] | 17.3 | 0.99 | 0.992 | 0.993 | 0.992 | 0.986 | 0.986 | 0.82 | 0.615 | 0.0044 | 3610 nM | – | 0.299 µM | 1.03 | 0.796 | 0.854 | 0.834 | 0.613 | 0.583 | -0.0282 | -0.2 | -0.928 | – | – | – | – | – | – | – | – | – | – | – | – | – | – | – | – | – | –
O=C(NCCCNc1nc(Nc2cccc(NC(=O)N3CCCC3)c2)ncc1I)c1cccs1 [BX795] | 34.3 | – | – | – | – | – | – | – | – | 0.661 | 11600 nM | -0.438 | 1.46 µM | – | – | – | – | – | – | – | – | -0.146 | 0.982 | 0.975 | 0.974 | 0.971 | 0.94 | 0.716 | 0.102 | 0.987 | 1.11 | 0.954 | 1.01 | 0.723 | -0.0493 | -0.574 | – | – | – | –
O=C(/C=C/c1cccc(S(=O)(=O)Nc2ccccc2)c1)NO [Belinostat] | 63.3 | – | – | – | – | – | – | – | – | 0.0497 | 930 nM | -0.733 | 0.332 µM | – | – | – | – | – | – | – | – | -0.646 | 0.969 | 0.972 | 0.947 | 0.878 | 0.466 | 0.096 | 0.0293 | 0.939 | 0.975 | 0.836 | 0.498 | -0.0168 | -0.527 | -0.72 | – | – | – | –
COC(=O)c1ccc2c(c1)NC(=O)/C2=C(\Nc1ccc(N(C)C(=O)CN2CCN(C)CC2)cc1)c1ccccc1 [Bibf-1120] | 50.6 | – | – | – | – | – | – | – | – | 0.00465 | 1480 nM | -0.805 | 0.845 µM | – | – | – | – | – | – | – | – | -0.767 | 0.981 | 0.975 | 0.974 | 0.947 | 0.758 | 0.092 | 0.00201 | 1.08 | 1.04 | 0.935 | 0.813 | 0.427 | -0.468 | -0.767 | – | – | – | –
CC(C)C[C@H](NC(=O)[C@H](Cc1ccccc1)NC(=O)c1cnccn1)B(O)O [Bortezomib] | 17.4 | – | – | – | – | – | – | – | – | 0.00121 | 29.4 nM | -0.899 | 0.0115 µM | – | – | – | – | – | – | – | – | -0.913 | 0.919 | 0.432 | 0.00995 | 0.00177 | 0.00348 | 0.00249 | 0.000942 | 0.572 | -0.293 | -0.811 | -0.912 | -0.874 | -0.887 | -0.902 | – | – | – | –
Nc1cc(C(F)(F)F)c(-c2cc(N3CCOCC3)nc(N3CCOCC3)n2)cn1 [Buparlisib] | 15.2 | 0.986 | 0.984 | 0.986 | 0.986 | 0.985 | 0.976 | 0.868 | 0.558 | 0.404 | 4100 nM | -0.554 | 0.439 µM | 0.914 | 0.956 | 0.959 | 0.899 | 0.77 | 0.704 | 0.0802 | -0.224 | -0.493 | – | – | – | – | – | – | – | – | – | – | – | – | – | – | – | – | – | –
CC[C@@]1(O)C(=O)OCc2c1cc1n(c2=O)Cc2cc3ccccc3nc2-1 [Camptothecin] | 25.1 | – | – | – | – | – | – | – | – | – | 761 nM | -0.368 | 0.00513 µM | – | – | – | – | – | – | – | – | – | 0.91 | 0.898 | 0.869 | 0.661 | 0.448 | 0.213 | – | 0.219 | 0.0844 | 0.0979 | -0.0587 | -0.211 | -0.411 | – | 0.969 | 0.949 | 0.83 | 0.651
